Experimental data as given in patent US7812022B2 (GlaxoSmithKline LLC, priority 2004, dated 2010).

Experiments:
ErbB2 or EGFR = target: T1, ErbB2 or EGFR; assay: ErbB family substrate phosphorylation enzyme assay (HTRF), Method A or Method B; assay type: biochemical
T1 construct: enzymes purified from a baculovirus expression system; Reagent production was conducted essentially as described in Brignola, P. S., et al, (2002) J. Biol. Chem. 277(2): 1576-1585
Outline: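 Baculovirus-expressed EGFR or ErbB2 (0.8 or 10 nM in enzyme mix) phosphorylates biotinylated Peptide C with 20 µM ATP and 0.8 µM peptide (substrate-mix levels), MnCl2, pH 7.5. Reaction ran 90 min at 20 °C with EDTA stop and HTRF anti-phosphotyrosine read. Method A: enzyme added last; Method B: 1 h enzyme–compound preincubation.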

[1] = test system: BT474 and HN5 tumor cell lines; assay: Methylene blue growth inhibition assay (cellular Method A); assay type: cell-based, Human; details: Homo sapiens, BT-474, 72 h, 3 days, read-out: Activity (Method): growth inhibition IC50 class
Outline: (§1)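 Colo205, BT474 and HN5 cells in DMEM/10% FBS (BT474 10,000, HN5 3,000 cells/well) treated next day with compound in DMEM, 0.3% final DMSO, for 3 days at 37° C. Biomass stained with methylene blue, solubilized, read at OD 620; IC50 interpolated by nonlinear regression from % inhibition versus vehicle.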

Colo205 tumor cell lines = assay: Methylene blue growth inhibition assay (cellular Method A), Colo205; assay type: cell-based, Human; details: Homo sapiens, COLO 205, 72 h, 3 days, read-out: Activity (Method): growth inhibition IC50 class
Outline: as §1

[2] = Method B: enzyme mix pre-incubated with compound 1 hour at 20° C., started with substrate mix
[3] = Method A: substrate mix added first, reaction started with enzyme mix

Row | Compound | IC50 [1] | IC50 (Colo205 tumor cell lines) | Activity (Method): pIC50 class against ErbB2 or EGFR (ErbB2 or EGFR; [2]) | Activity (Method): pIC50 class against ErbB2 or EGFR (ErbB2 or EGFR; [3])
1 | Cc1ccc(F)cc1C(=O)Nc1cccc(-c2nn3ccccc3c2-c2ccnc(Nc3cccc(F)c3)n2)c1 [Example 83, 5-Fluoro-N-[3-(3-{2-[(3-fluorophenyl)amino]-4-pyrimidinyl}pyrazolo[1,5-a]pyridin-2-yl)phenyl]-2-methylbenzamide] | 100 to 1000 nM | > 1000 nM | – | ++ (A) (at least one pIC50 measurement greater than 6 against either ErbB2 or EGFR but no measurement greater than pIC50 of 7)
2 | NS(=O)(=O)CCc1cccc(Nc2nccc(-c3c(-c4cccc(NC(=O)c5c(F)cccc5F)c4)nn4ccccc34)n2)c1 [Example 119, N-(3-{3-[2-({3-[2-(aminosulfonyl)ethyl]phenyl}-amino)-4-pyrimidinyl]pyrazolo[1,5-a]pyridin-2-yl}phenyl)-2,6-difluorobenzamide] | < 100 nM | 100 to 1000 nM | +++ (B) (at least one pIC50 measurement of greater than 7 against either ErbB2 or EGFR) | –
3 | COC(=O)CCCOc1ccc(Nc2nccc(-c3c(-c4cccc(NC(=O)c5c(F)cccc5F)c4)nn4ccccc34)n2)cc1Cl [Example 162, Methyl 4-{[2-chloro-4-({4-[2-(3-{[(2,6-difluorophenyl)carbonyl]-amino}phenyl)pyrazolo[1,5-a]pyridin-3-yl]-2-pyrimidinyl}amino)phenyl]oxy}-butanoate] | 100 to 1000 nM | 100 to 1000 nM | ++ (B) (at least one pIC50 measurement greater than 6 against either ErbB2 or EGFR but no measurement greater than pIC50 of 7) | –
4 | O=C(Nc1cc(-c2nn3ccccc3c2-c2ccnc(Nc3ccc4c(c3)CNCC4)n2)ccc1F)c1c(F)cccc1F [Example 160, 2,6-Difluoro-N-(2-fluoro-5-{3-[2-(1,2,3,4-tetrahydro-7-isoquinolinylamino)-4-pyrimidinyl]pyrazolo[1,5-a]pyridin-2-yl}phenyl)benzamide] | < 100 nM | < 100 nM | +++ (B) (at least one pIC50 measurement of greater than 7 against either ErbB2 or EGFR) | –
5 | O=C(Nc1cccc(-c2nn3ccccc3c2-c2ccnc(Nc3ccc(N4CCCC4=O)cc3)n2)c1)c1cc(F)ccc1F [Example 50, 2,5-Difluoro-N-{3-[3-(2-{[4-(2-oxo-1-pyrrolidinyl)phenyl]amino}-4-pyrimidinyl)pyrazolo[1,5-a]pyridin-2-yl]phenyl}benzamide] | 100 to 1000 nM | > 1000 nM | – | +++ (A) (at least one pIC50 measurement of greater than 7 against either ErbB2 or EGFR)
6 | COc1ccc(-c2nn3ccccc3c2-c2ccnc(Nc3cccc(CN(C)C)c3)n2)cc1NC(=O)c1c(F)cccc1F [Example 192, N-[5-{3-[2-({3-[(dimethylamino)methyl]phenyl}amino)-4-pyrimidinyl]pyrazolo[1,5-a]pyridin-2-yl}-2-(methyloxy)phenyl]-2,6-difluorobenzamide] | > 1000 nM | > 1000 nM | + (B) (no pIC50 measurement greater than 6 against either ErbB2 or EGFR) | –
7 | O=C(Nc1cccc(-c2nn3ccccc3c2-c2ccnc(Nc3cccc(F)c3)n2)c1)c1cccs1 [Example 25, N-[3-(3-{2-[(3-fluorophenyl)amino]-4-pyrimidinyl}pyrazolo[1,5-a]pyridin-2-yl)phenyl]-2-thiophenecarboxamide] | 100 to 1000 nM | > 1000 nM | +++ (B) (at least one pIC50 measurement of greater than 7 against either ErbB2 or EGFR) | –

Now from value to compound, other results behind:

Row | IC50 [1] | IC50 (Colo205 tumor cell lines) | Compound | Activity (Method): pIC50 class against ErbB2 or EGFR (ErbB2 or EGFR; [2]) | Activity (Method): pIC50 class against ErbB2 or EGFR (ErbB2 or EGFR; [3])
8 | < 100 nM | 100 to 1000 nM | COc1ccc(Nc2nccc(-c3c(-c4cccc(NC(=O)c5c(F)cccc5F)c4)nn4ccccc34)n2)cc1OCCN(C)C [Example 167, N-{3-[3-(2-{[3-{[2-(Dimethylamino)ethyl]oxy}-4-(methyloxy)phenyl]amino}-4-pyrimidinyl)pyrazolo[1,5-a]pyridin-2-yl]phenyl}-2,6-difluorobenzamide] | +++ (B) (at least one pIC50 measurement of greater than 7 against either ErbB2 or EGFR) | –
9 | < 100 nM | 100 to 1000 nM | COc1ccc(Nc2nccc(-c3c(-c4cccc(NC(=O)c5c(F)cccc5F)c4)nn4ccccc34)n2)cc1Cl [Example 87, N-{3-[3-(2-{[3-Chloro-4-(methyloxy)phenyl]amino}-4-pyrimidinyl)pyrazolo[1,5-a]pyridin-2-yl]phenyl}-2,6-difluorobenzamide] | – | +++ (A) (at least one pIC50 measurement of greater than 7 against either ErbB2 or EGFR)
10 | < 100 nM | 100 to 1000 nM | CN1CCN(c2ccc(Nc3nccc(-c4c(-c5cccc(NC(=O)c6c(F)cccc6F)c5)nn5ccccc45)n3)cc2)CC1 [Example 91] | +++ (B) (at least one pIC50 measurement of greater than 7 against either ErbB2 or EGFR) | –
11 | < 100 nM | 100 to 1000 nM | O=C(NC1CC1)c1ccc(Nc2nccc(-c3c(-c4cccc(NC(=O)c5c(F)cccc5F)c4)nn4ccccc34)n2)cc1 [Example 103, N-(3-{3-[2-({4-[(cyclopropylamino)carbonyl]phenyl}-amino)-4-pyrimidinyl]pyrazolo[1,5-a]pyridin-2-yl}phenyl)-2,6-difluorobenzamide] | +++ (B) (at least one pIC50 measurement of greater than 7 against either ErbB2 or EGFR) | –
12 | < 100 nM | > 1000 nM | O=C(Nc1cccc(-c2nn3ccccc3c2-c2ccnc(Nc3ccc(Cc4ccncc4)cc3)n2)c1)c1c(F)cccc1F [Example 94] | – | +++ (A) (at least one pIC50 measurement of greater than 7 against either ErbB2 or EGFR)
13 | 100 to 1000 nM | 100 to 1000 nM | CN(C)CC(=O)Nc1cccc(Nc2nccc(-c3c(-c4cccc(NC(=O)c5c(F)cccc5F)c4)nn4ccccc34)n2)c1 [Example 110, N-(3-{3-[2-({3-[(N,N-dimethylglycyl)amino]phenyl}-amino)-4-pyrimidinyl]pyrazolo[1,5-a]pyridin-2-yl}phenyl)-2,6-difluorobenzamide] | +++ (B) (at least one pIC50 measurement of greater than 7 against either ErbB2 or EGFR) | –
14 | < 100 nM | > 1000 nM | COc1ccc(Nc2nccc(-c3c(-c4cccc(NC(=O)c5c(F)cccc5F)c4)nn4ccccc34)n2)cc1O [Example 166, 2,6-Difluoro-N-{3-[3-(2-{[3-hydroxy-4-(methyloxy)phenyl]amino}-4-pyrimidinyl)pyrazolo[1,5-a]pyridin-2-yl]phenyl}benzamide] | +++ (B) (at least one pIC50 measurement of greater than 7 against either ErbB2 or EGFR) | –
15 | < 100 nM | < 100 nM | CN(C)CCOc1ccc(Nc2nccc(-c3c(-c4cccc(NC(=O)c5c(F)cccc5F)c4)nn4ccccc34)n2)cc1 [Example 105, N-[3-(3-{2-[(4-{[2-(dimethylamino)ethyl]oxy}phenyl)-amino]-4-pyrimidinyl}pyrazolo[1,5-a]pyridin-2-yl)phenyl]-2,6-difluorobenzamide] | +++ (B) (at least one pIC50 measurement of greater than 7 against either ErbB2 or EGFR) | –
